Measured values: PubChem BioAssay (NCI)
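Grown in 96-well plates, cells were treated for 48 hours with each compound at five concentrations. Insufficient inhibition: endpoint recorded as highest concentration tested. At the TGI there is no net growth.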

Legend:
Assay in all cases: NCI tumour cell line growth inhibition, 48 h
HOP-62 NSCLC = system: HOP-62 NSCLC
UACC-62 melanoma = system: UACC-62 melanoma
IGROV1 ovarian = system: IGROV1 ovarian
M14 melanoma = system: M14 melanoma
OVCAR-8 ovarian = system: OVCAR-8 ovarian
MDA-MB-435 = system: MDA-MB-435
ACHN renal = system: ACHN renal
HL-60(TB) leukemia = system: HL-60(TB) leukemia
MOLT-4 leukemia = system: MOLT-4 leukemia
BT-549 breast = system: BT-549 breast
HS 578T breast = system: HS 578T breast
SNB-19 CNS = system: SNB-19 CNS
SR leukemia = system: SR leukemia
DU-145 prostate = system: DU-145 prostate
786-0 renal = system: 786-0 renal
MCF7 breast = system: MCF7 breast
NCI-H23 lung = system: NCI-H23 lung
KM12 colon = system: KM12 colon
U251 CNS = system: U251 CNS
HT29 colon = system: HT29 colon
SW-620 colon = system: SW-620 colon
SNB-75 CNS = system: SNB-75 CNS
UO-31 renal = system: UO-31 renal
COLO 205 colon = system: COLO 205 colon
T-47D breast = system: T-47D breast
LOX IMVI melanoma = system: LOX IMVI melanoma
OVCAR-3 ovarian = system: OVCAR-3 ovarian
HOP-92 NSCLC = system: HOP-92 NSCLC
K-562 leukemia = system: K-562 leukemia
PC-3 prostate = system: PC-3 prostate
MALME-3M melanoma = system: MALME-3M melanoma
CCRF-CEM leukemia = system: CCRF-CEM leukemia
UACC-257 melanoma = system: UACC-257 melanoma
SF-295 CNS = system: SF-295 CNS
NCI-H522 lung = system: NCI-H522 lung
OVCAR-4 ovarian = system: OVCAR-4 ovarian
MDA-N = system: MDA-N
SK-MEL-28 melanoma = system: SK-MEL-28 melanoma
NCI-H460 lung = system: NCI-H460 lung
EKVX NSCLC = system: EKVX NSCLC
CAKI-1 renal = system: CAKI-1 renal
RPMI-8226 leukemia = system: RPMI-8226 leukemia
NCI-H226 lung = system: NCI-H226 lung
TK-10 renal = system: TK-10 renal
SF-268 CNS = system: SF-268 CNS
SN12C renal = system: SN12C renal
SK-OV-3 ovarian = system: SK-OV-3 ovarian
SK-MEL-2 melanoma = system: SK-MEL-2 melanoma
NCI/ADR-RES ovarian = system: NCI/ADR-RES ovarian
A549 NSCLC = system: A549 NSCLC
OVCAR-5 ovarian = system: OVCAR-5 ovarian
HCT-15 colon = system: HCT-15 colon
SK-MEL-5 melanoma = system: SK-MEL-5 melanoma
MDA-MB-231 breast = system: MDA-MB-231 breast
HCC-2998 colon = system: HCC-2998 colon
A498 renal = system: A498 renal
HCT-116 colon = system: HCT-116 colon
SF-539 CNS = system: SF-539 CNS
RXF 393 renal = system: RXF 393 renal

Measured: TGI

CN1C(C)(C)CC(=O)C(Br)C1(C)C (stereo unspecified)
not listed: MDA-MB-231 breast | HCC-2998 colon | A498 renal | HCT-116 colon | SF-539 CNS | RXF 393 renal
> 100 µM: all other assays above

N#CCC1C2CC3C(C2=O)C13 (stereo unspecified)
not listed: HL-60(TB) leukemia | BT-549 breast
> 100 µM: all other assays above

Cc1cccc2c1c(=O)c1c(O)cc3c(c1n2C)C=CC(C)(C)O3
not listed: UO-31 renal | T-47D breast
> 100 µM: all other assays above

CC(C)(Oc1ccc2c(=O)cc(-c3ccccc3)oc2c1)C(=O)N1CCN(c2ccccc2)CC1
6.73 µM: RXF 393 renal
4.38 µM: HL-60(TB) leukemia
not listed: MDA-MB-435 | ACHN renal | BT-549 breast | HS 578T breast | SNB-19 CNS | U251 CNS | UO-31 renal | COLO 205 colon | OVCAR-3 ovarian | HOP-92 NSCLC | NCI-H522 lung | OVCAR-4 ovarian | NCI-H460 lung | NCI-H226 lung | SK-MEL-2 melanoma | NCI/ADR-RES ovarian | OVCAR-5 ovarian | A498 renal | HCT-116 colon | SF-539 CNS
> 10 µM: all other assays above
